# Reference: patent publication US7160898B2, “Pharmacological treatment for sleep apnea” (Board of Trustees of The University of Illinois, priority 2002, dated 2007)
# Legend:
# [1] = test system: 5-hydroxytryptamine receptors; details: anesthetized animals, cited from earlier work; for apnea after intravenous administration: duration increased dose-dependently
# sleep apnea syndrome = details: cited from earlier work; for effect in patients with sleep apnea: literature reports
# [2] = test system: animal model of sleep apnea; details: U.S. Pat. No. 5,075,290; cited from earlier work
# sleep/wake architecture = test: Sleep/wake architecture after 5-HT and GR38032F (Example 3); type: in vivo, rat (Sprague-Dawley); details: i.p.
# Experimental: Sleep and waking states were assessed using the biparietal EEG and nuchal EMG signals on 10-second epochs as described by Bennington et al. [Sleep, 17:28–36 (1994)]. This software discriminated wakefulness (W) as a high frequency low amplitude EEG with a concomitant high EMG tone, NREM sleep by increased spindle and […] activity together with decreased EMG tone, and REM sleep by a […] activity and an absence of EMG tone. Sleep efficiency was measured as the percentage of total recorded epochs staged as NREM or REM sleep.
# (§1) Each animal was recorded on four occasions, with recordings for an individual animal separated by at least three days. Fifteen minutes prior to each recording, each animal received (via intraperitoneal injection), in random order, one of the following: (a) saline solution (control); (b) 0.79 mg/kg serotonin; (c) 0.1 mg/kg GR38032F plus 0.79 mg/kg serotonin; or (d) 0.1 mg/kg GR38032F. For the GR38032F+serotonin test group, 0.1 mg/kg GR38032F was administered at time 09:30 followed by 0.79 mg/kg serotonin at time 09:45. Polygraphic recordings were made from 10:00–16:00.
# (§2) Respiration BP, EEG, and EMG data were determined and recorded via the experimental procedure as specifically set forth above in Example 2. As in Example 2, sleep apneas, defined as cessation of respiratory effort for at least 2.5 s, were scored for each recording session and were associated with the stage in which they occurred: NREM or REM sleep. The duration requirement of 2.5 s represents at least two “missed” breaths, which is analogous to a 10-s apnea duration requirement in humans.
# (§3) The effects of sleep stage (NREM vs REM) and injection (control vs. administration of either serotonin alone, GR38032F+serotonin, or GR38032F alone) on apnea indexes, respiratory pattern, BP, and HP were tested using analysis of variance (ANOVA) with repeated measures. Multiple comparisons were controlled using Fisher's protected least-significance difference (PLSD). One-way ANOVA was also performed by nonparametric (Kruskal-Wallis) analysis. Conclusions using parametric and nonparametric ANOVA were identical in all cases.
# RR, VE, mean BP, HP = test: Respiratory pattern, BP and HP after serotonin and GR38032F (Example 3); type: in vivo, rat (Sprague-Dawley)
# Experimental: Similar software (Experimenters' Workbench; Datawave Technologies, Longmont, Colo.) was employed to analyze the blood pressure waveform; for each beat of each recording, systolic (SBP) and diastolic (DBP) blood pressures and pulse interval were measured. The pulse interval provided a beat by beat estimate of HP. Mean BP (MBP) was estimated according to the weighted average of SBP and DBP for each beat: MBP=DBP+(SBP−DBP)/3. The parameters for each beat were also classified according to the sleep/wake state and recording hour during which they occurred.
# as §1, §2
# as §3, with “Conclusions using parametric and nonparametric ANOVA were identical in all cases.” left out
# [3] = test system: spontaneous sleep-related central apneas; test: Induction and suppression of sleep apneas by serotonin and GR38032F (Example 3); type: in vivo, rat (Sprague-Dawley); details: 6 hour recording
# Experimental: Ten adult male Sprague-Dawley rats (Sasco-King, Wilmington, Mass.; 300 g) were maintained on a 12-h light (08:00–20:00 hour)/12-hour dark (20:00–08:00) cycle for one week, housed in individual cages, and given ad libitum access to food and water. Following the one week of acclimatization, animals were prepared for physiological testing via the surgical procedures (i.e., implantation of cortical electrodes for EEG recording and neck muscle electrodes for EMG recording, implantation of a radiotelemetry transmitter for BP and HP monitoring) as set forth above in Example 1. After completion of the surgical procedures, animals were allowed a one week recovery period prior to use in the present study. Each animal was recorded on four occasions, with recordings for an individual animal separated by at least three days. Fifteen minutes prior to each recording, each animal received (via intraperitoneal injection), in random order, one of the following: (a) saline solution (control); (b) 0.79 mg/kg serotonin; (c) 0.1 mg/kg GR38032F plus 0.79 mg/kg serotonin; or (d) 0.1 mg/kg GR38032F. For the GR38032F+serotonin test group, 0.1 mg/kg GR38032F was administered at time 09:30 followed by 0.79 mg/kg serotonin at time 09:45. Polygraphic recordings were made from 10:00–16:00. Respiration BP, EEG, and EMG data were determined and recorded via the experimental procedure as specifically set forth above in Example 2. As in Example 2, sleep apneas, defined as cessation of respiratory effort for at least 2.5 s, were scored for each recording session and were associated with the stage in which they occurred: NREM or REM sleep. The duration requirement of 2.5 s represents at least two “missed” breaths, which is analogous to a 10-s apnea duration requirement in humans. The effects of sleep stage (NREM vs REM) and injection (control vs. administration of either serotonin alone, GR38032F+serotonin, or GR38032F alone) on apnea indexes, respiratory pattern, BP, and HP were tested using analysis of variance (ANOVA) with repeated measures. Multiple comparisons were controlled using Fisher's protected least-significance difference (PLSD). One-way ANOVA was also performed by nonparametric (Kruskal-Wallis) analysis. Conclusions using parametric and nonparametric ANOVA were identical in all cases.
# [4] = percent recording time, 6 hours, 5-HT 0.79 mg/kg, GR38032F 0.1 mg/kg, mean ± SE
molecule,measurement,setting,value
Cc1[nH]c2ccc(O)cc2c1CCN [2-methyl-5-hydroxytryptamine],apnea after intravenous administration,[1],produced transient apnea
N[C@@H](Cc1c[nH]c2ccccc12)C(=O)O [L-tryptophan],effect in patients with sleep apnea,sleep apnea syndrome,may have a beneficial effect on sleep apnea syndrome
CNCCCC1c2ccccc2C=Cc2ccccc21 [Protriptyline],effect in patients with sleep apnea,sleep apnea syndrome,variable results and frequent and significant side effects
CC(N)Cc1c[nH]c2ccc(O)cc12 (centres unmarked) [a-methyl-5-hydroxytryptamine],apnea after intravenous administration,[1],produced transient apnea
CC(=O)Nc1nnc(S(N)(=O)=O)s1 [acetazolamide],effect in patients with sleep apnea,sleep apnea syndrome,variable improvement in individuals with primary central apneas but caused an increase in obstructive apneas
Nc1ncnc2c1ncn2[C@@H]1O[C@H](CO)[C@@H](O)[C@H]1O [adenosine],reduction of apnea,[2],somewhat effective in reducing apnea
O=C1CC2(CCCC2)CC(=O)N1CCCCN1CCN(c2ncccn2)CC1 [buspirone],patients with sleep apnea syndrome with reduced apnea index,sleep apnea syndrome; Mendelson et al. 1991,4 of 5
same,effect in patients with sleep apnea,sleep apnea syndrome,eliminate post-surgical apneustic breathing in one child
CCN1CC(CCN2CCOCC2)C(c2ccccc2)(c2ccccc2)C1=O (centres unmarked) [doxapram],effect in patients with sleep apnea,sleep apnea syndrome,decrease the length of apneas but did not alter the average arterial oxygen saturation
CNCCC(Oc1ccc(C(F)(F)F)cc1)c1ccccc1 (centres unmarked) [fluoxetine],effect in patients with sleep apnea,sleep apnea syndrome,benefit some but not all patients with sleep apnea syndrome
O=C(c1ccc(F)cc1)C1CCN(CCn2c(=O)[nH]c3ccccc3c2=O)CC1 [ketanserine],antagonism of agonist-induced transient apnea,[1],significantly antagonized
CC[C@@H](CO)NC(=O)[C@@H]1C=C2c3cccc4c3c(cn4C)C[C@H]2N(C)C1 [methysergide],antagonism of agonist-induced transient apnea,[1],significantly antagonized
C=CCN1CC[C@]23c4c5ccc(O)c4O[C@H]2C(=O)CC[C@@]3(O)[C@H]1C5 [naloxone],effect in patients with sleep apnea,sleep apnea syndrome,only slightly helpful
Fc1ccc([C@@H]2CCNC[C@H]2COc2ccc3c(c2)OCO3)cc1 [paroxetine],effect in patients with sleep apnea,sleep apnea syndrome,benefit some but not all patients with sleep apnea syndrome
"NCCc1c[nH]c2ccc(O)cc12 [serotonin, 5-hydroxytryptamine]",effect on sleep architecture,sleep/wake architecture; 6 hours of polygraphic recording,had no effect on sleep architecture
same,% NREM,sleep/wake architecture; [4],59.9 ± 3.3%
same,% REM,sleep/wake architecture; [4],6.5 ± 1.1%
same,% Wakefulness,sleep/wake architecture; [4],30.2 ± 3.2%
same,apnea after intravenous administration,[1],produced transient apnea
same,"effect on RR, VE, mean BP, HP, or PS apnea index","RR, VE, mean BP, HP; i.p., serotonin 0.79 mg/kg, GR38032F 0.1 mg/kg, data not shown","had no effect on sleep, cardiovascular variables, RR, or VE"
same,beat-to-beat heart rate and BP variability (coefficients of variation),"RR, VE, mean BP, HP; serotonin 0.79 mg/kg i.p.",unaffected
same,changes in heart rate or mean BP,"RR, VE, mean BP, HP; serotonin 0.79 mg/kg i.p., 6 hour recording period",did not elicit changes in either heart rate or mean BP
same,spontaneous apnea index during NREM sleep,"[3]; i.p., serotonin 0.79 mg/kg, GR38032F 0.1 mg/kg",not affected by any drug treatment
same,increase of spontaneous apnea expression during REM sleep compared to control,[3]; serotonin 0.79 mg/kg i.p.,> 250%
Cn1c(=O)c2[nH]cnc2n(C)c1=O [theophylline],effect in patients with sleep apnea,sleep apnea syndrome,may benefit patients with central apnea but appears to be of no use in adult patients with obstructive apnea
medroxyprogesterone,effect in patients with sleep apnea,sleep apnea syndrome,no consistent benefit in OSAS
